Data from patent US20210395239A1 (Hoffmann-La Roche Inc., priority 2018, published 2021).

How the values were obtained:
human TLR8 = biological target: T1, human TLR8 (Homo sapiens, UniProt Q9NR97); test: HEK293-Blue-hTLR-8 cells assay (SEAP reporter, R848 stimulation); type: cell-based; settings: HEK293-Blue-hTLR8 cells, R848, 20 hrs; read-out: HEK/hTLR8 IC50
T1 construct: host or cells: HEK293 (HEK-Blue hTLR8)
T1 sequence (Q9NR97 27-1041): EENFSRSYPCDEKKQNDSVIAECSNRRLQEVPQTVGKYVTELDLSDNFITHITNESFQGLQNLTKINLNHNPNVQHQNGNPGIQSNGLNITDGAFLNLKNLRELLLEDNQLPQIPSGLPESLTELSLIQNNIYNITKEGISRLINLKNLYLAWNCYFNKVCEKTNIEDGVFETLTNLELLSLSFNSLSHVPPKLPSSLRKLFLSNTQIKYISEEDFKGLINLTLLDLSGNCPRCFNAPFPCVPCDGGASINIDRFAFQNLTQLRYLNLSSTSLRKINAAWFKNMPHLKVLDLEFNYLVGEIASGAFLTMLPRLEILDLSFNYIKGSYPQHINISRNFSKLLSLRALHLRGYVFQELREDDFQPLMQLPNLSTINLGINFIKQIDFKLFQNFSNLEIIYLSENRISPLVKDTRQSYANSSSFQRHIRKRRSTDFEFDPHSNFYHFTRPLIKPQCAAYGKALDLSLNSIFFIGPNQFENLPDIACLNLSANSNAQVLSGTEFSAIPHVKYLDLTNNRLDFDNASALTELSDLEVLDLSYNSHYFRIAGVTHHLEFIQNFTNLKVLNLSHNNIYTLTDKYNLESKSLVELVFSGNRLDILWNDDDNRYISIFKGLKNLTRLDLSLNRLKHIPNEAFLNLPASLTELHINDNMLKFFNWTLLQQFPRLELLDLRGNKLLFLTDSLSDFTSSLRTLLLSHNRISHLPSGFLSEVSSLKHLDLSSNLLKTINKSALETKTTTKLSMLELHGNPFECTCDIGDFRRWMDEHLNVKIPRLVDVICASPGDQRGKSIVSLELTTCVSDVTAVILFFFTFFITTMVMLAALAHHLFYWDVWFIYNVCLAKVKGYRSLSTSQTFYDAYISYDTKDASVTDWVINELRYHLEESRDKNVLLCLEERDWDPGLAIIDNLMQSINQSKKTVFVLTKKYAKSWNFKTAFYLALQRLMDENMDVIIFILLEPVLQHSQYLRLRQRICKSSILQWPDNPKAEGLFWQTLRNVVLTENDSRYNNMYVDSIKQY
How it was run: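 Antagonism read as reduced R848-induced SEAP reporter secretion, detected by QUANTI-Blue absorbance at 620–655 nm after 2 h. Reporter cells were exposed to compound dilutions in DMEM/10% FBS, 1% DMSO, for 20 h at 37° C.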

CYP3A4 = biological target: T2, CYP3A4 (Homo sapiens, UniProt P08684); test: CYP inhibition assay in human liver microsome, CYP3A4; type: in vitro ADME; settings: substrate midazolam 5 μM, third value of 2C9/2D6/3A4
T2 construct: tissue BD-Gentest 452117; host or cells: human liver microsomes
How it was run: (§1)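 Pooled human liver microsomes with a substrate for each CYP were incubated with compound at 37 °C after NADPH addition, for 5 min (CYP2D6: 10 min), then quenched with acetonitrile containing labelled metabolite standards. Metabolite/internal-standard peak area ratios were measured by RapidFire MS/MS. % inhibition was scaled between DMSO and standard-inhibitor controls.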

CYP2C9 = biological target: T3, CYP2C9 (Homo sapiens, UniProt P11712); test: CYP inhibition assay in human liver microsome, CYP2C9; type: in vitro ADME; settings: substrate diclofenac 5 μM, first value of 2C9/2D6/3A4
T3 construct: tissue BD-Gentest 452117; host or cells: human liver microsomes
How it was run: as §1

T2 sequence (P08684 whole entry): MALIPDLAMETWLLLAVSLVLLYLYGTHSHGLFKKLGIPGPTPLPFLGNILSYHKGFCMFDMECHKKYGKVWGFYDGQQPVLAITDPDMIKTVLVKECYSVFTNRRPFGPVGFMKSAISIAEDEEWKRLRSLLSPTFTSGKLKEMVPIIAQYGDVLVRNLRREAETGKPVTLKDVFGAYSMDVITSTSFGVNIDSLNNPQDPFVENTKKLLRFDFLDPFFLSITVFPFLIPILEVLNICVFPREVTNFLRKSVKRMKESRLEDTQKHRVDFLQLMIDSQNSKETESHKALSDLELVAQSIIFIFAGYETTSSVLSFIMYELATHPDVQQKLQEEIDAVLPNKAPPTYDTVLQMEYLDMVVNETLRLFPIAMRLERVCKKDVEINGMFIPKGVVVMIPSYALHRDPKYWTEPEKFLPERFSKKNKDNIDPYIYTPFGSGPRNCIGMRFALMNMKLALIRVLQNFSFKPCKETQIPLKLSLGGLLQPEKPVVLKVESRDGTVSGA
T3 sequence (P11712 whole entry): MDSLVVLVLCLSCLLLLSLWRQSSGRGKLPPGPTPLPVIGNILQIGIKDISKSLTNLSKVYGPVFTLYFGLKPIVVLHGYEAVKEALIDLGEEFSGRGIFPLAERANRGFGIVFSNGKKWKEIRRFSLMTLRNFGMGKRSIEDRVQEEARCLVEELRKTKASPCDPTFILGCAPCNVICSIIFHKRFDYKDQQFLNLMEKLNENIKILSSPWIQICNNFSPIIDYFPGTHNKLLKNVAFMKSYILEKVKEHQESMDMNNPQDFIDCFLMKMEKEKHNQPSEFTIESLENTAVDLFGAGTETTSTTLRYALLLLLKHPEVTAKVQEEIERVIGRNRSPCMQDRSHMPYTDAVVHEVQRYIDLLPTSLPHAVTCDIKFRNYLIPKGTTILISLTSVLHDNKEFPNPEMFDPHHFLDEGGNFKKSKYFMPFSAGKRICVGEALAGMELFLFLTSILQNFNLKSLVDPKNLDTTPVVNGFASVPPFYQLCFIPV

Structure (SMILES)	IC50 (human TLR8)	also measured
COC1CNC[C@H]1Nc1cccc(N2CCN(C[C@H]3CN(c4ccc(C#N)c5ncccc45)C[C@@H](C)O3)CC2)n1 (stereo in doubt) [Example 39, 5-[(2S,6R)-2-[[4-[6-[[(3R,4R)-4-methoxypyrrolidin-3-yl]amino]-2-pyridyl]piperazin-1-yl]methyl]-6-methyl-morpholin-4-yl]quinoline-8-carbonitrile]	23 nM	inhibition at 5 min, 10 µM (CYP3A4; human, human liver microsomes, probe midazolam 5 μM): 23.5%; inhibition at 5 min, 10 µM (CYP2C9; human, human liver microsomes, probe diclofenac 5 μM): 23%
COC1CN(c2nccc(N3CCN(C[C@H]4CN(c5ccc(C#N)c6ncccc56)C[C@@H](C)O4)CC3)n2)C[C@H]1N (stereo in doubt) [Example 52, 5-[(2S,6R)-2-[[4-[2-[(3R,4R)-3-amino-4-methoxy-pyrrolidin-1-yl]pyrimidin-4-yl]piperazin-1-yl]methyl]-6-methyl-morpholin-4-yl]quinoline-8-carbonitrile]	3 nM	CYP (%) 3A4 inhibition (CYP3A4): 2%; CYP (%) 2C9 inhibition (CYP2C9): 3.5%
Cc1cc(N2CCN(C[C@H]3CN(c4ccc(C(F)(F)F)c5nccnc45)C[C@@H](C)O3)CC2)nc(N2CCNCC2)n1 [Example 65, (2R,6S)-2-methyl-6-[[4-(6-methyl-2-piperazin-1-yl-pyrimidin-4-yl)piperazin-1-yl]methyl]-4-[8-(trifluoromethyl)quinoxalin-5-yl]morpholine]	9 nM	–
Cc1cc(N2CCN(C[C@H]3CN(c4ccc(C#N)c5ncccc45)C[C@@H](C)O3)CC2)nc(N2CCNCC(O)C2)n1 (stereo partly drawn) [Example 66, 5-[(2S,6R)-2-[[4-[2-(6-hydroxy-1,4-diazepan-1-yl)-6-methyl-pyrimidin-4-yl]piperazin-1-yl]methyl]-6-methyl-morpholin-4-yl]quinoline-8-carbonitrile]	8 nM	–
Cc1cc(N2CCN(C[C@H]3CN(c4ccc(C#N)n5ncc(F)c45)C[C@@H](C)O3)CC2)nc(N2CCNCC2)n1 [Example 67, 3-Fluoro-4-[(2R,6S)-2-methyl-6-[[4-(6-methyl-2-piperazin-1-yl-pyrimidin-4-yl)piperazin-1-yl]methyl]morpholin-4-yl]pyrazolo[1,5-a]pyridine-7-carbonitrile]	23 nM	–
Cc1cc(N2CCNCC2)nc(N2CCN(C[C@H]3CN(c4ccc(C#N)c5ncccc45)C[C@@H](C)O3)CC2)n1 [Example 68, 5-[(2R,6S)-2-methyl-6-[[4-(4-methyl-6-piperazin-1-yl-pyrimidin-2-yl)piperazin-1-yl]methyl]morpholin-4-yl]quinoline-8-carbonitrile]	2 nM	–
C[C@@H]1CN(c2ccc(C#N)n3ncc(F)c23)C[C@H](CN2CCN(c3ccc(N4CC5(CNCCO5)C4)nc3)CC2)O1 [Example 169, 3-fluoro-4-[(2R,6S)-2-methyl-6-[[4-[6-(5-oxa-2,8-diazaspiro[3.5]nonan-2-yl)-3-pyridyl]piperazin-1-yl]methyl]morpholin-4-yl]pyrazolo[1,5-a]pyridine-7-carbonitrile]	30 nM	–
C[C@@H]1CN(c2cc(=O)n(C)c3ncccc23)C[C@H](CN2CC(c3ccc(N4CCNCC4)cc3)C2)O1 [Example 171, 1-methyl-4-[(2R,6S)-2-methyl-6-[[3-(4-piperazin-1-ylphenyl)azetidin-1-yl]methyl]morpholin-4-yl]-1,8-naphthyridin-2-one]	129 nM	–
C[C@@H]1CN(c2cc(=O)n(C)c3ncccc23)C[C@H](CN2CC(c3ccc(N4CC5(CNCCO5)C4)cc3)C2)O1 [Example 173, 1-methyl-4-[(2R,6S)-2-methyl-6-[[3-[4-(5-oxa-2,8-diazaspiro[3.5]nonan-2-yl)phenyl]azetidin-1-yl]methyl]morpholin-4-yl]-1,8-naphthyridin-2-one]	74 nM	–
C[C@@H]1CN(c2ccc(C#N)n3ncc(F)c23)C[C@H](CN2CCN(c3ccc(N4CC[C@@H](N)[C@H](F)C4)nc3)CC2)O1 [Example 175, 4-[(2S,6R)-2-[[4-[6-[(3R,4R)-4-amino-3-fluoro-1-piperidyl]-3-pyridyl]piperazin-1-yl]methyl]-6-methyl-morpholin-4-yl]-3-fluoro-pyrazolo[1,5-a]pyridine-7-carbonitrile]	12 nM	–
C[C@@H]1CN(c2cc(=O)n(C)c3ncccc23)C[C@H](CN2CC(c3ccc(N4CC(C)(N)C4)cc3)C2)O1 [Example 176, 4-[(2S,6R)-2-[[3-[4-(3-amino-3-methyl-azetidin-1-yl)phenyl]azetidin-1-yl]methyl]-6-methyl-morpholin-4-yl]-1-methyl-1,8-naphthyridin-2-one]	323 nM	–
C[C@@H]1CN(c2ccc(C#N)n3ncc(F)c23)C[C@H](CN2CCN(c3ccc([C@@H]4CNCCO4)cc3)CC2)O1 [Example 177, 3-fluoro-4-[(2R,6S)-2-methyl-6-[[4-[4-[(2R)-morpholin-2-yl]phenyl]piperazin-1-yl]methyl]morpholin-4-yl]pyrazolo[1,5-a]pyridine-7-carbonitrile]	27 nM	–
C[C@@H]1CN(c2ccc(C#N)n3ncc(F)c23)C[C@H](CN2CCN(c3ccc(N4CCOC5(CNC5)C4)nc3)CC2)O1 [Example 178, 3-fluoro-4-[(2R,6S)-2-methyl-6-[[4-[6-(5-oxa-2,8-diazaspiro[3.5]nonan-8-yl)-3-pyridyl]piperazin-1-yl]methyl]morpholin-4-yl]pyrazolo[1,5-a]pyridine-7-carbonitrile]	91 nM	–
C[C@@H]1CN(c2ccc(C#N)n3ncc(F)c23)C[C@H](CN2CCN(c3ccc(N4CC5(CCN5)C4)nc3)CC2)O1 [Example 179, 4-[(2S,6R)-2-[[4-[6-(1,6-diazaspiro[3.3]heptan-6-yl)-3-pyridyl]piperazin-1-yl]methyl]-6-methyl-morpholin-4-yl]-3-fluoro-pyrazolo[1,5-a]pyridine-7-carbonitrile]	54 nM	–
C[C@@H]1CN(c2cc(=O)n(C)c3ncccc23)C[C@H](CN2CC(c3ccc(N4CC5(CN(C)C5)C4)cc3)C2)O1 [Example 180, 1-methyl-4-[(2R,6S)-2-methyl-6-[[3-[4-(6-methyl-2,6-diazaspiro[3.3]heptan-2-yl)phenyl]azetidin-1-yl]methyl]morpholin-4-yl]-1,8-naphthyridin-2-one]	77 nM	–
C[C@@H]1CN(c2cc(=O)n(C)c3ncccc23)C[C@H](CN2CC(c3ccc(N4C[C@H]5NCCO[C@@H]5C4)cc3)C2)O1 [Example 182, 4-[(2S,6R)-2-[[3-[4-[(4aR,7aR)-3,4,4a,5,7,7a-hexahydro-2H-pyrrolo[3,4-b][1,4]oxazin-6-yl]phenyl]azetidin-1-yl]methyl]-6-methyl-morpholin-4-yl]-1-methyl-1,8-naphthyridin-2-one]	51 nM	–
C[C@@H]1CN(c2ccc(C#N)n3ncc(F)c23)C[C@H](CN2CCN(c3ccc([C@@H]4CNCCO4)c(F)c3)CC2)O1 [Example 184, 3-fluoro-4-[(2S,6R)-2-[[4-[3-fluoro-4-[(2R)-morpholin-2-yl]phenyl]piperazin-1-yl]methyl]-6-methyl-morpholin-4-yl]pyrazolo[1,5-a]pyridine-7-carbonitrile]	14 nM	–
C[C@@H]1CN(c2ccc(C#N)n3ncc(F)c23)C[C@H](CN2CCN(c3ccc(C4(C)CNCCO4)cc3)CC2)O1 (stereo partly drawn) [Example 185, 3-fluoro-4-[(2R,6S)-2-methyl-6-[[4-[4-(2-methylmorpholin-2-yl)phenyl]piperazin-1-yl]methyl]morpholin-4-yl]pyrazolo[1,5-a]pyridine-7-carbonitrile]	33 nM	–
C[C@@H]1CN(c2ccc(C#N)n3ncc(F)c23)C[C@H](CN2CCN(c3ccc(C[C@@H]4CNCCO4)cc3)CC2)O1 [Example 186, 3-fluoro-4-[(2R,6S)-2-methyl-6-[[4-[4-[[(2R)-morpholin-2-yl]methyl]phenyl]piperazin-1-yl]methyl]morpholin-4-yl]pyrazolo[1,5-a]pyridine-7-carbonitrile]	23 nM	–
